# Measured values taken from patent publication US9902702B2, “Spirocycloheptanes as inhibitors of rock” (BRISTOL-MYERS SQUIBB COMPANY, priority 2014, dated 2018).
# Target: ROCK2 (Homo sapiens, UniProt O75116)
# Experiment: ROCK assay: phosphorylation of FITC peptide substrate, LABCHIP 3000 mobility shift
# Format: biochemical
# Details: 5 μM ATP, 1.5 μM peptide substrate; read-out: ROCK2 Activity (ROCK IC50 range)
# Method in brief: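 Rho kinase variant phosphorylates 1.5 μM FITC-AHA-AKRRRLSSLRA-OH with 5 μM ATP in 20 mM HEPES pH 7.5, 20 mM MgCl2, 0.015% Brij-35, 4 mM DTT, DMSO <2%. EDTA stops the reaction, and phospho and non-phospho peptides are resolved by LabChip 3000 mobility shift. IC50 from dose-response curve fit.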
# ROCK2, sequence (O75116 whole entry, species assumed): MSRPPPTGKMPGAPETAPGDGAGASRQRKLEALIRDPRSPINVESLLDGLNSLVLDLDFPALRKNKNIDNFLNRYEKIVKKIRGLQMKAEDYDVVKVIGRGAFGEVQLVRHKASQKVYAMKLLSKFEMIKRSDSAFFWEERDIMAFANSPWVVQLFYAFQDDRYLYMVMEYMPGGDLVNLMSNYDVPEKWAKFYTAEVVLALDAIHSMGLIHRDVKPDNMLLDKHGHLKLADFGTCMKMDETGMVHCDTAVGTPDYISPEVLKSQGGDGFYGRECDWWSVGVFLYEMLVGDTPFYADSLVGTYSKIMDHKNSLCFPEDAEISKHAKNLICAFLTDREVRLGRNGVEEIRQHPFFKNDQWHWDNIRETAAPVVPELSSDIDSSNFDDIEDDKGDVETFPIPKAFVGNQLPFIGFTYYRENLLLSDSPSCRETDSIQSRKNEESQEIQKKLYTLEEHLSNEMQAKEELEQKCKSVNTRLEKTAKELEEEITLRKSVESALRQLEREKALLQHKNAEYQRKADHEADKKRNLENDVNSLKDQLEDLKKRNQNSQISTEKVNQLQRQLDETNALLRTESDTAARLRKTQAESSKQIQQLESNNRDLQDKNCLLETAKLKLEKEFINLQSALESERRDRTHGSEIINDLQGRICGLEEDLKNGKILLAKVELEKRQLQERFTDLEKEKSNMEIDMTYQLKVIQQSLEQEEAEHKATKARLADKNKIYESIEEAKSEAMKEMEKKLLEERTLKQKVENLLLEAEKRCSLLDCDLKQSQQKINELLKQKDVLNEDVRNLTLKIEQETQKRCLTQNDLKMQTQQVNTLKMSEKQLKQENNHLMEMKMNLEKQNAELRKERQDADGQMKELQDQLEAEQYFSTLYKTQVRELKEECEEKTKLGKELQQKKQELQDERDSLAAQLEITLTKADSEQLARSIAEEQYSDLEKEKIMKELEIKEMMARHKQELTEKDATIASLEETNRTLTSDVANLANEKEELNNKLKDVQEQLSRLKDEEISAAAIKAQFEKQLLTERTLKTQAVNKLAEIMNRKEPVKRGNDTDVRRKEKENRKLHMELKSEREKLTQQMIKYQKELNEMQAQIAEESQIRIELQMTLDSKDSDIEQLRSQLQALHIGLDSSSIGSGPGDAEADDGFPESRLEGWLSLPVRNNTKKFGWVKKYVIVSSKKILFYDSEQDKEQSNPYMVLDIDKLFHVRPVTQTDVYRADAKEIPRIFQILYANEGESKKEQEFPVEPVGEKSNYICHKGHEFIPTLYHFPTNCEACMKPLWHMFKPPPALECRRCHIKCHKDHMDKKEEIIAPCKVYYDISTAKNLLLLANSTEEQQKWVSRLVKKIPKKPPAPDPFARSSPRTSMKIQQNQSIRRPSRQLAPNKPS
row,IC50 [nM],SMILES
1,15.1 to 100,"[H][C@]1(c2n[nH]c(=O)c3ccccc32)C[C@]2(C[C@@H](NC(=O)c3ccc4c(cnn4C)c3)C2)C1 (stereo partly drawn) [Example 373, 1-methyl-N-((aR)-6-(4-oxo-3,4-dihydrophthalazin-1-yl)spiro[3.3]heptan-2-yl)-1H-indazole-5-carboxamide]"
2,5.1 to 15,"[H][C@]1(c2n[nH]c(=O)c3ccccc32)C[C@]2(C[C@@H](NC(=O)c3cnc4cc(C#N)ccn34)C2)C1 (stereo partly drawn) [Example 379, 7-cyano-N-((aR)-6-(4-oxo-3,4-dihydrophthalazin-1-yl)spiro[3.3]heptan-2-yl)imidazo[1,2-a]pyridine-3-carboxamide]"
3,5.1 to 15,"[H][C@]1(c2n[nH]c(=O)c3ccccc32)C[C@]2(C[C@@H](NC(=O)c3cnc4c(C#N)cccn34)C2)C1 (stereo partly drawn) [Example 380, 8-cyano-N-((aR)-6-(4-oxo-3,4-dihydrophthalazin-1-yl)spiro[3.3]heptan-2-yl)imidazo[1,2-a]pyridine-3-carboxamide]"
4,0.2 to 2,"[H][C@]1(c2n[nH]c(=O)c3ccccc32)C[C@]2(C[C@@H](NC(=O)c3cnc4cc(-c5ccccc5)ccn34)C2)C1 (stereo partly drawn) [Example 383, N-((aR)-6-(4-oxo-3,4-dihydrophthalazin-1-yl)spiro[3.3]heptan-2-yl)-7-phenylimidazo[1,2-a]pyridine-3-carboxamide]"

# Second part, the molecule before the results:
row,SMILES,IC50 [nM]
1,"[H][C@]1(c2n[nH]c(=O)c3ccccc32)C[C@]2(C[C@@H](NC(=O)c3[nH]c4c(OC)cccc4c3C)C2)C1 (stereo partly drawn) [Example 372, 7-methoxy-3-methyl-N-((aR)-6-(4-oxo-3,4-dihydrophthalazin-1-yl)spiro[3.3]heptan-2-yl)-1H-indole-2-carboxamide]",15.1 to 100
2,"[H][C@]1(c2n[nH]c(=O)c3ccccc32)C[C@]2(C[C@@H](NC(=O)c3cn4ccc(Br)cc4n3)C2)C1 (stereo partly drawn) [Example 374, 7-bromo-N-((aR)-6-(4-oxo-3,4-dihydrophthalazin-1-yl)spiro[3.3]heptan-2-yl)imidazo[1,2-a]pyridine-2-carboxamide]",15.1 to 100
3,"[H][C@]1(c2n[nH]c(=O)c3ccccc32)C[C@]2(C[C@@H](NC(=O)c3ccc(Br)cn3)C2)C1 (stereo partly drawn) [Example 375, 5-bromo-N-((aR)-6-(4-oxo-3,4-dihydrophthalazin-1-yl)spiro[3.3]heptan-2-yl)picolinamide]",15.1 to 100
4,"[H][C@]1(c2n[nH]c(=O)c3ccccc32)C[C@]2(C[C@@H](NC(=O)c3cn4ccccc4n3)C2)C1 (stereo partly drawn) [Example 377, N-((aR)-6-(4-oxo-3,4-dihydrophthalazin-1-yl)spiro[3.3]heptan-2-yl)imidazo[1,2-a]pyridine-2-carboxamide]",15.1 to 100
5,[H][C@]1(c2n[nH]c(=O)c3ccccc32)C[C@]2(C[C@@H](NC(=O)c3cnc4cc(N5CCN(C)CC5)ccn34)C2)C1 (stereo partly shown) [Example 378],0.2 to 2
6,"[H][C@]1(c2n[nH]c(=O)c3ccccc32)C[C@]2(C[C@@H](NC(=O)c3cnc4c(C(F)(F)F)cccn34)C2)C1 (stereo partly drawn) [Example 381, N-((aR)-6-(4-oxo-3,4-dihydrophthalazin-1-yl)spiro[3.3]heptan-2-yl)-8-(trifluoro-methyl)imidazo[1,2-a]pyridine-3-carboxamide]",2.01 to 5
7,"[H][C@]1(c2n[nH]c(=O)c3ccccc32)C[C@]2(C[C@@H](NC(=O)c3cnc4c(Cl)cccn34)C2)C1 (stereo partly drawn) [Example 382, 8-chloro-N-((aR)-6-(4-oxo-3,4-dihydrophthalazin-1-yl)spiro[3.3]heptan-2-yl)imidazo[1,2-a]pyridine-3-carboxamide]",2.01 to 5
8,"[H][C@]1(c2n[nH]c(=O)c3ccccc32)C[C@]2(C[C@@H](NC(=O)c3cnc4cc(OCc5ccccc5)ccn34)C2)C1 (stereo partly drawn) [Example 384, 7-(benzyloxy)-N-((aR)-6-(4-oxo-3,4-dihydrophthalazin-1-yl)spiro[3.3]heptan-2-yl)imidazo[1,2-a]pyridine-3-carboxamide]",0.2 to 2
9,"[H][C@]1(c2n[nH]c(=O)c3ccccc32)C[C@]2(C[C@@H](NC(=O)c3cnc4cc(OC)ccn34)C2)C1 (stereo partly drawn) [Example 385, 7-methoxy-N-((aR)-6-(4-oxo-3,4-dihydrophthalazin-1-yl)spiro[3.3]heptan-2-yl)imidazo[1,2-a]pyridine-3-carboxamide]",0.2 to 2
